Marks after values point to notes of the source that are not given here.
Key:
S180 sarcoma cells = assay: Growth of KM mice-transplanted S180 sarcoma cells in vivo; parameters: unit not given here; conditions: for Sarcoma volume: V=(1/6)πABC, saline 1.20 ± 0.28
Description: S180 sarcoma cells were transplanted intraperitoneally into KM mice for 6-8 days and the ascites aseptically collected. The cell concentration was adjusted to 1×10^7 per ml with 10% FBS RPMI-1640, and 0.2 ml cell suspension was injected through the armpit into each KM mice for developing the sarcoma bearing mice model. […] Intraperitoneal injection of test substances started on the day immediately after tumor transplantation and continued once per day for 20 consecutive days.
On the day after the last test substance administration, the sarcomas were removed from the mice and weighed. The diameters of each sarcoma on the three planes (A, B, C) were measured by a vernier caliper. The volume of the sarcoma was calculated by the formula: V=(⅙)πABC.

mice NK cell = assay: Mice NK cell activity in vivo (i.p. dosing 20 days, spleen effector cells vs YAC-1 target cells, MTT); parameters: species or system BALB/c mice; conditions: for Effect on mice NK cell activity in vivo (enhancement) / Effect on mice NK cell activity in vivo (suppression): at suitable dosage, vs saline control P<0.05
Description: Animals were randomized into two peptide groups (200 μg/kg/day and 50 μg/kg/day), Cyclosporine A group (10 mg/kg/day), and saline group (0.5 ml/day). Each group contained 10 mice, in which half were female and half were male. All test substances were dissolved in 0.5 ml saline and administered intraperitoneally once per day for 20 days. T-lymphocyte transformation and NK cell activity were examined on the day immediately following the last injection. YAC-1 target cells were brought to log phase and adjusted to a density of 1×10^5/ml. Mice spleen cells prepared in section 2.2.2 above were adjusted to a density of 4×10^6/ml and used as effector cells. The cell suspensions were inoculated onto 96 wells cell culture plates as follows: Effector cell wells: 100 μl spleen cell suspension+100 μl RPMI-1640 Assay wells: 100 μl spleen cell suspension+100 μl YAC-1 cell suspension Target cell wells: 100 μl YAC-1 cell suspension+100 μl RPMI-1640 Three assay wells and three effector cell wells were set up for each animal, and 12 target cell wells were set up per cell culture plate. The plates were incubated at 37° C., 5% CO2 for 4 hours, then MTT was added and the plates were read at OD 570 nm referenced at 630 nm with ELISA reader. NK cell activity (%)=1−[(assay wells OD−effector cell wells OD)/target cell wells OD]×100%

mice T-lymphocyte = assay: Mice T-lymphocyte transformation in vivo (i.p. dosing 20 days, spleen cells + ConA, MTT, stimulation index); parameters: species or system BALB/c mice; conditions: for Effect on mice T-lymphocyte transformation in vivo: at suitable dosages, vs saline control P<0.05
Description: Animals were randomized into two peptide groups (200 μg/kg/day and 50 μg/kg/day), Cyclosporine A group (10 mg/kg/day), and saline group (0.5 ml/day). Each group contained 10 mice, in which half were female and half were male. All test substances were dissolved in 0.5 ml saline and administered intraperitoneally once per day for 20 days. T-lymphocyte transformation and NK cell activity were examined on the day immediately following the last injection. The day after the last test substance administration, the mice were sacrificed by cervical dislocation. The spleens were isolated aseptically and manually dispersed in 10% FBS RPMI-1640 solution using an injection needle. The dispersed cell suspension was further sieved through a 100 gauge 150 μm diameter stainless steel sieve and adjusted to 4×10^6/ml. The cell suspensions were inoculated onto a 96 wells cell culture plate, 100 μl/well with the following design. Assay wells: 100 μl cell suspension+100 μl ConA Control wells: 100 μl cell suspension+100 μl RPMI-1640 Four assay and four control wells were set up for each animal. The plates were incubated at 37° C., 5% CO2 for 68 hours. MTT was then added and the plates read at OD 570 nm referenced at 630 nm with ELISA reader. Stimulation Index SI (%)=(assay well OD/control well OD)×100%.

[1] = Table 12, 250 μg/kg/day, saline 1.87 ± 0.52
[2] = Table 12, 500 μg/kg/day, saline 1.87 ± 0.52
[3] = Table 9, 50 μg/kg/day i.p. 20 days, saline 55.3 ± 6.1
[4] = Table 7, 50 μg/kg/d i.p. 20 days, saline 2.96 ± 0.61
[5] = Table 11, 10 μg/kg/day i.p. 20 days, saline 5.07 ± 5.46
[6] = Table 11, 50 μg/kg/day i.p. 20 days, saline 5.07 ± 5.46
[7] = Table 8, 200 μg/kg/day i.p. 20 days, saline 76.0 ± 4.3

| Molecule | Sarcoma volume (S180 sarcoma cells; Table 12, 250 μg/kg/day) | Sarcoma weight (S180 sarcoma cells; [1]) | Sarcoma volume (S180 sarcoma cells; Table 12, 500 μg/kg/day) | Sarcoma weight (S180 sarcoma cells; [2]) | other results |
| --- | --- | --- | --- | --- | --- |
| HPTLLTEAPLNPK [CMS-010.11] | 0.63 ± 0.40 | 0.64 ± 0.31 | 0.95 ± 0.54 | 1.14 ± 0.74 | NK cell activity (%) (mice NK cell; [3]): 63.5 ± 4.7 %; Effect on mice NK cell activity in vivo (enhancement) (mice NK cell): enhance |
| VAPEEH [CMS-010.25] | 0.48 ± 0.37 | 0.65 ± 0.53 | 0.26 ± 0.21*^@ | 0.52 ± 0.38 | SI (mice T-lymphocyte; Table 5, 200 μg/kg/day i.p. 20 days, saline 3.15 ± 0.83): 2.43 ± 0.69; Effect on mice T-lymphocyte transformation in vivo (mice T-lymphocyte): suppress |
| VAPEEHPTLLTE [CMS-010.12] |  |  |  |  | SI (mice T-lymphocyte; [4]): 2.12 ± 0.42; Effect on mice T-lymphocyte transformation in vivo (mice T-lymphocyte): suppress |
| VALLT [CMS-010.103] |  |  |  |  | Sarcoma weight (S180 sarcoma cells; [5]): 1.72 ± 1.53; Sarcoma weight (S180 sarcoma cells; [6]): 1.48 ± 1.44 |
| LNPK [CMS-010.28] |  |  |  |  | SI (mice T-lymphocyte; Table 4, 200 μg/kg/day i.p. 20 days, saline 3.63 ± 0.69): 2.70 ± 0.37; Effect on mice T-lymphocyte transformation in vivo (mice T-lymphocyte): suppress; NK cell activity (%) (mice NK cell; [7]): 70.3 ± 6.7 %; Effect on mice NK cell activity in vivo (suppression) (mice NK cell): suppress |
| NPK [CMS-010.31] | 0.25 ± 0.20*^@ | 0.27 ± 0.19*^@ | 0.43 ± 0.50 | 0.78 ± 0.89 | Sarcoma weight (S180 sarcoma cells; [5]): 1.05 ± 1.28; Sarcoma weight (S180 sarcoma cells; [6]): 1.20 ± 1.60 |
| VAPEEHPTLLTEAPLNP [CMS-010.03] | 0.31 ± 0.22 | 0.68 ± 0.46 | 0.27 ± 0.33*^@ | 0.33 ± 0.35*^@ |  |
| VAPEEHPTLLT [CMS-010.14] | 0.29 ± 0.21 | 0.44 ± 0.30*^@ | 0.56 ± 0.53 | 0.67 ± 0.70 | SI (mice T-lymphocyte; [4]): 2.12 ± 0.51; Effect on mice T-lymphocyte transformation in vivo (mice T-lymphocyte): suppress; NK cell activity (%) (mice NK cell; [3]): 75.3 ± 9.0 %; NK cell activity (%) (mice NK cell; Table 9, 200 μg/kg/day i.p. 20 days, saline 55.3 ± 6.1): 43.1 ± 13.7 %; Effect on mice NK cell activity in vivo (enhancement) (mice NK cell): enhance |
| VAPE [CMS-010.29] | 1.02 ± 0.66 | 1.24 ± 0.72 | 0.40 ± 0.11 | 0.55 ± 0.41 |  |
| APLNPK [CMS-010.24] | 0.36 ± 0.30 | 0.61 ± 0.39 | 0.62 ± 0.47 | 1.20 ± 0.79 | SI (mice T-lymphocyte; Table 4, 50 μg/kg/day i.p. 20 days, saline 3.63 ± 0.69): 2.40 ± 0.31; Effect on mice T-lymphocyte transformation in vivo (mice T-lymphocyte): suppress; NK cell activity (%) (mice NK cell; Table 8, 50 μg/kg/day i.p. 20 days, saline 76.0 ± 4.3): 56.0 ± 6.0 %; NK cell activity (%) (mice NK cell; [7]): 69.0 ± 7.4 %; Effect on mice NK cell activity in vivo (suppression) (mice NK cell): suppress |
| PTLLTEAPLNPK [CMS-010.13] | 0.91 ± 0.59 | 0.92 ± 0.56 | 0.38 ± 0.23 | 0.73 ± 0.43 | NK cell activity (%) (mice NK cell; [3]): 70.9 ± 17.5 %; Effect on mice NK cell activity in vivo (enhancement) (mice NK cell): enhance |
| VAPEEHPTLLTEAPLN [CMS-010.05] | 0.23 ± 0.19*^@ | 0.56 ± 0.33 | 0.34 ± 0.22 | 0.47 ± 0.29*^@ |  |
| LTEAPLNPK [CMS-010.19] | 0.46 ± 0.58 | 0.41 ± 0.45*^@ | 0.40 ± 0.42 | 0.68 ± 0.68 |  |
| TEAPLNPK [CMS-010.21] | 0.44 ± 0.22 | 0.51 ± 0.29 | 0.44 ± 0.21 | 0.44 ± 0.22*^@ |  |
| APEEHPTLLTEAPLNPK [CMS-010.02] | 0.36 ± 0.40 | 0.68 ± 0.72 | 0.65 ± 0.67 | 0.97 ± 0.85 |  |
| VAPEEHPT [CMS-010.20] | 0.88 ± 0.77 | 1.00 ± 0.76 | 0.54 ± 0.51 | 0.59 ± 0.46 |  |
| TLLTEAPLNPK [CMS-010.15] | 0.41 ± 0.37 | 0.45 ± 0.35*^@ | 0.63 ± 0.35 | 0.68 ± 0.36 |  |
| VAPEE [CMS-010.27] | 0.58 ± 0.58 | 0.78 ± 0.68 | 0.51 ± 0.33 | 1.05 ± 0.86 |  |
| VAPEEHPTLLTEAPL [CMS-010.07] | 0.24 ± 0.13*^@ | 0.32 ± 0.14*^@ | 0.37 ± 0.20 | 0.52 ± 0.25 |  |
| VAPEEHPTL [CMS-010.18] | 0.27 ± 0.20*^@ | 0.44 ± 0.31*^@ | 0.58 ± 0.42 | 0.59 ± 0.48 |  |
| COc1cccc2c1C(=O)c1c(O)c3c(c(O)c1C2=O)C[C@@](O)(C(=O)CO)C[C@@H]3O[C@H]1C[C@H](N)[C@H](O)[C@H](C)O1 [Adriamycin, reference compound] |  |  |  |  | Sarcoma weight (S180 sarcoma cells; Table 11, 2 mg/kg/day i.p. 20 days, saline 5.07 ± 5.46): 1.52 ± 1.75 |
| VAPEEHPTLL [CMS-010.16] | 0.61 ± 0.44 | 0.63 ± 0.47 | 0.92 ± 0.36 | 0.99 ± 0.42 |  |
| EHPTLLTEAPLNPK [CMS-010.09] | 0.37 ± 0.44 | 0.45 ± 0.38*^@ | 0.84 ± 0.84 | 0.85 ± 0.70 |  |
| PEEHPTLLTEAPLNPK [CMS-010.04] | 0.17 ± 0.12*^@ | 0.27 ± 0.19*^@ | 0.40 ± 0.28 | 0.62 ± 0.44 | SI (mice T-lymphocyte; Table 6, 50 μg/kg/day i.p. 20 days, saline 2.24 ± 0.52): 1.56 ± 0.25; Effect on mice T-lymphocyte transformation in vivo (mice T-lymphocyte): suppress |
| EAPLNPK [CMS-010.23] | 0.21 ± 0.15*^@ | 0.27 ± 0.18^@ |  |  |  |
| VAPEEHPTLLTEAP [CMS-010.08] | 0.20 ± 0.14*^@ | 0.38 ± 0.27*^@ | 1.01 ± 0.63 | 1.05 ± 0.64 |  |
| VAPEEHP [CMS-010.22] | 0.24 ± 0.08*^@ | 0.28 ± 0.12*^@ | 0.73 ± 0.87 | 0.85 ± 0.73 |  |
| O=P1(N(CCCl)CCCl)NCCCO1 (centres unmarked) [Cyclophosphamide, reference compound] |  |  |  |  | Sarcoma volume (S180 sarcoma cells; Table 12, 40 mg/kg/day): 0.76 ± 0.66; Sarcoma weight (S180 sarcoma cells; Table 12, 40 mg/kg/day, saline 1.87 ± 0.52): 1.07 ± 0.80 |
| LLTEAPLNPK [CMS-010.17] | 0.40 ± 0.24 | 0.65 ± 0.41 | 0.55 ± 0.34 | 0.91 ± 0.46 |  |

From patent publication US7718764B2, “Biologically active peptide [sequence] derivatives” (CMS Peptides Patent Holding Company Limited, priority 2004, dated 2010)
